Where two headings read alike, the source gives them in different places.
Molecular target: T1, soybean lipoxygenase (LOX) (Glycine max, UniProt P08170)
T1 construct: gene LOX1.1
T1 sequence (P08170 1-839): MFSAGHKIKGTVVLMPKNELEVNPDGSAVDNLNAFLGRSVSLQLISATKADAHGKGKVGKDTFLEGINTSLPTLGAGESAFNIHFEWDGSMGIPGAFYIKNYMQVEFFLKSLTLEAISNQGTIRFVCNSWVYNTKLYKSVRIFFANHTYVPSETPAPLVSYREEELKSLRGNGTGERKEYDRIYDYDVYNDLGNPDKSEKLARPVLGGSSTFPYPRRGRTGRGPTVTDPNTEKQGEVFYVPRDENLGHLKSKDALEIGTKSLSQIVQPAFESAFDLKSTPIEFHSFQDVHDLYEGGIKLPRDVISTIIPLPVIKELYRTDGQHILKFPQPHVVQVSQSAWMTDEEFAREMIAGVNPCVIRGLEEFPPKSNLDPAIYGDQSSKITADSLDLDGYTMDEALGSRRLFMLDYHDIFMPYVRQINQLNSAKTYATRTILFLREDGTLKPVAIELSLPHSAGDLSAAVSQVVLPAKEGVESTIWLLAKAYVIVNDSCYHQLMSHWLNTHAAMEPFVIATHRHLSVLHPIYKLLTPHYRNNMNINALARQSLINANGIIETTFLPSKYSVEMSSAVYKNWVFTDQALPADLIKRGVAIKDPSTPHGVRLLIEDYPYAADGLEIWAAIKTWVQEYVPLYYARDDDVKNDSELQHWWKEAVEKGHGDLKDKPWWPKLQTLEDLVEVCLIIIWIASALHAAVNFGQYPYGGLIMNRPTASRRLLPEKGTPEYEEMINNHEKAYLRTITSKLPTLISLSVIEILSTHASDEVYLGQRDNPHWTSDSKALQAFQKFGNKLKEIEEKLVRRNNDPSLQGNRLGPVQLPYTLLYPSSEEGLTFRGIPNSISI
Assay: UV absorbance at […] nm, conversion of sodium linoleate to 13-hydroperoxylinoleic acid, Tris pH […]
Type: biochemical

IC50 (read-out: LOX Inhibition (% or IC50)) [µM] | SMILES | IC50 [µM]
– | C#C[C@]1(O)CC[C@H]2[C@@H]3CCC4=CC(=[N+](C)[O-])CC[C@]4(C)[C@H]3CC[C@@]21C [MC3] | 62 ± 0.8
– | C#C[C@]1(O)CC[C@H]2[C@@H]3CCC4=CC(=NO)CC[C@]4(C)[C@H]3CC[C@@]21C (mixture of isomers) [MC2] | 97 ± 1.5
3.8 ± 0.3 | CC#C[C@]1(O)CC[C@H]2[C@@H]3CCC4=CC(=NO)CCC4=C3[C@@H](c3ccc(N(C)C)cc3)C[C@@]21C [MC4] | –

Source: article PMC12692713, “Neuroprotective and Antioxidant Properties of Different Novel Steroid-Derived Nitrones and Oximes on Cerebral Ischemia In Vitro” (International Journal of Molecular Sciences, 2025)
